In patent US20200239530A1, “COMPOUNDS AND METHODS OF MODULATING PROTEIN DEGRADATION” (Vividion Therapeutics, Inc., priority 2017, published 2020):

Assays:
Experiment in all cases: Cysteine liganding, probe competition
Format in all cases: binding
[1] = biological target: T1, ATP6V1A V-type proton ATPase catalytic subunit A (Homo sapiens, UniProt P38606); conditions: for Liganded: ATP6V1A Res# 277, uniprot P38606
T1 construct: 200 μL of lysate containing 5 mg/ml proteome was treated with 2 μL of 100× compound stock; endogenous in cells
T1 sequence (P38606 whole entry): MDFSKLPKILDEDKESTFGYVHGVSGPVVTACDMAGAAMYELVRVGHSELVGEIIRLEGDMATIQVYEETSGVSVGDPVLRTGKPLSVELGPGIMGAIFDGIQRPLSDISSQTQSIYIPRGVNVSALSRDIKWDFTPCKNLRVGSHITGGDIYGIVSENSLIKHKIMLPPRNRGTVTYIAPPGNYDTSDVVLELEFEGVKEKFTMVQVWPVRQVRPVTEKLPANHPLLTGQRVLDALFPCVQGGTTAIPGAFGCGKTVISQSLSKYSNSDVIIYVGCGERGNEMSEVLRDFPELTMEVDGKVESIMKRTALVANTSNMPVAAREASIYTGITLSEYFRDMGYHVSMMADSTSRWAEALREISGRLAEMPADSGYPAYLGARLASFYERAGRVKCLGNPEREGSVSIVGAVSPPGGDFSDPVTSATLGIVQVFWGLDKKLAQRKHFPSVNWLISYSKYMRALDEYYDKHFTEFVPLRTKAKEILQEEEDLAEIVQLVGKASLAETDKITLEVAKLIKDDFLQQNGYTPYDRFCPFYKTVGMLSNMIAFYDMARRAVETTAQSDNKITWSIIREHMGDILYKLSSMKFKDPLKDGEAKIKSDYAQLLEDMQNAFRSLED
Summary of the method: (§1)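 Probe competition in native proteome: 5 mg/ml lysate, compound 1 hr 25° C, then desthiobiotin iodoacetamide (10 mM stock) 1 hr 25° C; acetone ppt, urea/DTT reduction, iodoacetamide alkylation, trypsin, streptavidin pull-down.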

[2] = biological target: T2, UBR4 E3 ubiquitin-protein ligase UBR4 (Homo sapiens, UniProt Q5T4S7)
T2 construct: Cells were resuspended in cold PBS on ice and sonicated with a probe sonicator to achieve lysis; endogenous in cells
Summary of the method: as §1

[3] = biological target: T3, HERC4 Probable E3 ubiquitin-protein ligase HERC4 (Homo sapiens, UniProt Q5GLZ8)
T3 construct: Cells were resuspended in cold PBS on ice and sonicated with a probe sonicator to achieve lysis; endogenous in cells
T3 sequence (Q5GLZ8 1-1057): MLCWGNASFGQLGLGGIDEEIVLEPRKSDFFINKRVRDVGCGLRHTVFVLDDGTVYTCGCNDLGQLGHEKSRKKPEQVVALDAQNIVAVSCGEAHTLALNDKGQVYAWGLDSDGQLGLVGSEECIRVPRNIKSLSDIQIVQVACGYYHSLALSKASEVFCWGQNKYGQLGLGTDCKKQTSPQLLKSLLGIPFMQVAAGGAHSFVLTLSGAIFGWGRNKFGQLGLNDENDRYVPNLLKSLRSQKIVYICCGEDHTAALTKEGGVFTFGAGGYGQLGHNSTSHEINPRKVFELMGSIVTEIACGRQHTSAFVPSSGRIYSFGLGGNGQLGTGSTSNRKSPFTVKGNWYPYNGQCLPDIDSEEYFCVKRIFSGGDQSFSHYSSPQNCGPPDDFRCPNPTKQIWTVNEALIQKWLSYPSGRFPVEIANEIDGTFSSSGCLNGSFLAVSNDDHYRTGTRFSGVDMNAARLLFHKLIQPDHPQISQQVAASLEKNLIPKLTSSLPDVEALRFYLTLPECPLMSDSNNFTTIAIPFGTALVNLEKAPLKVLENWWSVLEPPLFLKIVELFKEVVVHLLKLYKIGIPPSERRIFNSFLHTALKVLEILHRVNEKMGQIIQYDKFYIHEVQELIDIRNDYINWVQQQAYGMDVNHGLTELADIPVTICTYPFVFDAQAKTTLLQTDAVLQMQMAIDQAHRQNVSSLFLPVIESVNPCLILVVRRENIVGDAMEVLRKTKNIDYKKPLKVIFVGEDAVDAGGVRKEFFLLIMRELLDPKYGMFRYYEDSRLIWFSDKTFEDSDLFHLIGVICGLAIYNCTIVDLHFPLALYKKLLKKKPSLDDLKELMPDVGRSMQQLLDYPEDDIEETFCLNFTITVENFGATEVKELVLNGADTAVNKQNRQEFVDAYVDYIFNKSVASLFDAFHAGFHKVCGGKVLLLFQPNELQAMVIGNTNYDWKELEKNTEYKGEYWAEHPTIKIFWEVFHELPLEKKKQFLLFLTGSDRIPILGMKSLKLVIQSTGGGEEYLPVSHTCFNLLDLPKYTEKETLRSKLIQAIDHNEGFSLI
Summary of the method: as §1

Row | SMILES | Liganded [1] | Liganded ([2]; UBR4 Res# 4049, uniprot Q5T4S7) | Liganded ([3]; HERC4 Res# 60, uniprot Q5GLZ8) | 100 Max ([1]; uniprot P38606) | 100 ave ([1]; uniprot P38606) | 500 Max ([1]; uniprot P38606) | 500 ave ([1]; uniprot P38606) | 100 Max ([2]; uniprot Q5T4S7) | 100 ave ([2]; uniprot Q5T4S7) | 500 Max ([2]; uniprot Q5T4S7) | 500 ave ([2]; uniprot Q5T4S7) | 100 Max ([3]; uniprot Q5GLZ8) | 100 ave ([3]; uniprot Q5GLZ8) | 500 ave ([3]; uniprot Q5GLZ8) | 500 Max ([3]; uniprot Q5GLZ8, unit assumed)
1 | COc1ccc2c(c1)CCCN2C(=O)CCl [KB02] | YES | YES | YES |  |  |  |  |  |  |  |  |  |  |  | 
2 | O=C(CCl)Nc1cc(C(F)(F)F)cc(C(F)(F)F)c1 [KBO3] | YES |  |  | 27.98 | 18.165 | 76.55 | 69.985 | 13.1 | −4.9 | 49.5 | 29.3 | 42.0 | 15.4 | 58.8 | 62.3%
